Measured values reported in patent publication US20050069887A1, “Dna synthesis promoters dna polymerase-associated factors and utilization thereof” (priority 2001, published 2005).
“And” between values parts separate entries of the source, which are not always exact repeats. Equal values may be shown once.

Legend:
[1] = molecular target: KOD DNA polymerase (Thermococcus kodakarensis, UniProt P77933, DEL407-766/DEL853-1389); assay: Long PCR using KOD DNA polymerase (Examples 2-5 to 2-8); format: biochemical, Thermococcus kodakaraensis KOD1
Description: Oxalate ion and betaine were investigated for their synergistic effectiveness in long PCR amplification of a target DNA of more than 20 kb derived from the human genome using KOD DNA polymerase, successful amplification of which using α-type enzyme alone has not been reported. Potassium oxalate was added to the PCR buffer supplied with KOD-plus (TOYOBO CO.,LTD.) to attain a final concentration of 2 mM. Also used were 0.4 mM dNTPs, 0.3 μM of a pair of primers of SEQ ID Nos:20 and 21, and 2.0 U KOD DNA polymerase. 200 ng of genomic DNA derived from human cell line K562 was used as a template. This reaction mixture was subjected to PCR by using GeneAmp2400 (PE Applied Biosystems) to investigate the influence on the PCR results of varying the concentration of betaine. The PCR conditions were as follows: 1 preliminary reaction of 94° C. for 2 minutes; 5 cycles of 98° C. for 10 seconds and 74° C. for 18 minutes; 5 cycles of 98° C. for 10 seconds and 72° C. for 18 minutes; 5 cycles of 98° C. for 10 seconds and 70° C. for 18 minutes; 25 cycles of 98° C. for 10 second and 68° C. for 18 minutes; and 1 additional reaction of 68° C. for 7 minutes.
Oxalate ion and betaine were investigated for their synergistic effectiveness in long PCR amplification of a target DNA of more than 20 kb derived from the human genome using KOD DNA polymerase, successful amplification of which using α-type enzyme alone has not been reported. Betaine was added to the PCR buffer supplied with KOD-plus (TOYOBO CO., LTD.) to attain a final concentration of 1.5 M. Also used were 2.0 U KOD DNA polymerase, 0.4 mM dNTPs and 0.3 μM of a pair of primers of SEQ ID Nos:22 and 23 respectively for the PCR amplification of 22 kb DNA in tPA gene, and SEQ ID Nos:22 and 24 respectively for the PCR amplification of tPA 24 kb DNA. 200 ng of genomic DNA derived from human cell line K562 was used as a template. This reaction mixture was subjected to PCR by using GeneAmp2400 (PE Applied Biosystems) to investigate the influence on the PCR results of varying the concentration of potassium oxalate. The PCR conditions were as follows: 1 preliminary reaction of 94° C. for 2 minutes; 5 cycles of 98° C. for 10 seconds and 74° C. for 18 minutes; 5 cycles of 98° C. for 10 seconds and 72° C. for 18 minutes; 5 cycles of 98° C. for 10 seconds and 70° C. for 18 minutes; 25 cycles of 98° C. for 10 seconds and 68° C. of 18 minutes; and 1 additional reaction of 68° C. for 7 minutes.
Under the aforementioned conditions in which oxalate ions and betaine are present, the effect of hot start PCR using antibodies in long PCR using KOD DNA polymerase was investigated. Potassium oxalate and betaine were added to the PCR buffer supplied with KOD-plus (TOYOBO CO.LTD.) to attain a final oxalate concentration of 2 mM and a final betaine concentration of 1.5 M. Also used were 2.0 U KOD DNA polymerase, 0.4 mM dNTPs and 0.3 μM of a pair of primers of SEQ ID Nos:22 and 25 for PCR amplification of tPA 12 kb DNA; SEQ ID Nos:22 and 26 for PCR amplification of tPA 15 kb DNA; SEQ ID Nos:22 and 27 for PCR amplification of tPA 18 kb DNA; SEQ ID Nos:22 and 23 for PCR amplification of tPA 22 kb DNA; SEQ ID Nos:22 and 24 for PCR amplification of tPA 24 kb DNA; and SEQ ID Nos:28 and 29 for PCR amplification of β-globin 17.5 kb DNA. 200 ng of genomic DNA derived from human cell line K562 was used as a template. […]

[2] = molecular target: T1, KOD-plus DNA polymerase (Thermococcus kodakarensis, UniProt P77933, DEL407-766/DEL853-1389); format: biochemical, Thermococcus kodakaraensis KOD1; settings: salt at 6 mM of ion equivalent, FIG. 9
T1 construct: purchased Toyobo

[3] = 2 mM potassium oxalate, target of more than 20 kb, FIG. 15

Chain of KOD DNA polymerase (P77933 other isoform, or with tags, fused parts or gaps DEL407-766/DEL853-1389): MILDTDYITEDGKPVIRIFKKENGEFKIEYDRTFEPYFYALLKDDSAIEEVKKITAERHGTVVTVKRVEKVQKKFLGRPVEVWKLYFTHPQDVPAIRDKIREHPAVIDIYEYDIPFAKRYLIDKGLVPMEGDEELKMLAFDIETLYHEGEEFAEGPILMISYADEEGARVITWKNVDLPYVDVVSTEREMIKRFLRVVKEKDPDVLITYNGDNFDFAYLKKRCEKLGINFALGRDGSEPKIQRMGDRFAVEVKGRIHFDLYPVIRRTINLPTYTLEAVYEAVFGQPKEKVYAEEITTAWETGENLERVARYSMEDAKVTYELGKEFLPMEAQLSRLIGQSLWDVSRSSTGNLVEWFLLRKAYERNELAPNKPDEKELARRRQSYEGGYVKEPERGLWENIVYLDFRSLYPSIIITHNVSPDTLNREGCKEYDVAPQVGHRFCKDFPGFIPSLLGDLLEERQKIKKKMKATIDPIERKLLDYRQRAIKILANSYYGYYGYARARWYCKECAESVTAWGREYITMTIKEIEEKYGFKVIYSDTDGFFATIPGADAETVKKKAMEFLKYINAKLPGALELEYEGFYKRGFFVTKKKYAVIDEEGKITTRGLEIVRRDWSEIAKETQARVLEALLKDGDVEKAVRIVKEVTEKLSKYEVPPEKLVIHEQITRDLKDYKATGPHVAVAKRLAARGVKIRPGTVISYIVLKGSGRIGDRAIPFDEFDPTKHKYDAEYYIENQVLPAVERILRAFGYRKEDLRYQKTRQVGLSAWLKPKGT
T1 sequence (P77933 other isoform, or with tags, fused parts or gaps DEL407-766/DEL853-1389): as above

Row | SMILES | betaine concentration at which sufficient amplification of both target DNAs was observed ([1]; 2 mM potassium oxalate, tPA 9 kb and 12 kb, FIG. 18) | betaine concentration at which amplification of the target DNA was not observed [1, 3] | betaine concentration at which sufficient amplification was found [1, 3] | potassium oxalate concentration at which amplification was confirmed ([1]; 1.5 M betaine, tPA 22 kb DNA, FIG. 16) | potassium oxalate concentration at which slight amplification was observed ([1]; 1.5 M betaine, tPA 24 kb DNA, FIG. 16) | amplification of target DNA (electrophoresis pattern) [2]
1 | C[N+](C)(C)CC(=O)[O-] [betaine, trimethylglycine] | 1 M and 1.5 M | ≤ 1.2 M | 1.4 M and 1.6 M |  |  | 
2 | O=C([O-])C(=O)[O-].[K+].[K+] [potassium oxalate] |  |  |  | 2 mM | 1.5 mM and 2.0 mM | Amplification was observed
